Measured values published in patent US20060286159A1 (priority 2003, published 2006).
“Also recorded” adds a separate entry of the source.

Assays:
[1] = system: chronic non-insertional Achilles tendinopathy; assay: Non-insertional Achilles tendinopathy clinical trial (randomized, double blind, placebo controlled); format: in vivo, human
Excerpt: (§1) Three clinical trials were approved by an institutional Ethics Committee. Patients with clinical diagnoses of the specified tendinopathies were recruited through newspaper advertisements and private consulting rooms. All subjects were over 18 years of age, and gave written informed consent.
(§2) In the non-insertional Achilles tendinopathy trial, there were 65 patients (84 Achilles tendons) with 40 men and 25 women enrolled in the study, having a median age of 49 years (range 24 to 77 years), and a median duration of symptoms prior to the study of 16 months (range 4 to 147 months). In the extensor tendinopathy trial, there were 86 patients (95 elbows), with 42 males and 44 females, having a median age of 46 years (range 30 to 74 years), and a median duration of symptoms of 17 months (range 3 to 232 months). In the supraspinatus tendinopathy trial, there were 53 patients (57 shoulders), with 24 males and 29 females, having a median age of 52 years (range 25 to 79 years), and a median symptom duration of 14 months (range 4 to 96).
(§3) Diagnostic criteria for patient inclusion in the respective trials were as follows. The diagnosis of chronic non-insertional Achilles tendinopathy was based on an insidious onset of Achilles tendon pain, a tender nodule localized to the region 2 to 6 centimeters from the calcaneal insertion, and an ultrasound examination that excluded a frank tendon tear. The diagnosis of chronic extensor tendinopathy at the elbow was based on an insidious onset of lateral elbow pain, tenderness localized to the lateral humeral epicondyle and extensor carpi radialis brevis tendon, pain in the lateral elbow with resisted wrist or third metacarpophalangeal joint extension, and an ultrasound examination that excluded a frank tendon tear. The diagnosis of chronic supraspinatus tendinopathy was based on positive impingement signs (internal or external rotation), pain with supraspinatus muscle testing, and magnetic resonance imaging (MRI) high signal intensity without frank tear in the supraspinatus tendon.
(§4) Patients were excluded if they had tendinopathy of less than three months duration, current pregnancy, previous surgery on the affected limb or tendon, dislocation of the ipsilateral limb joints, distal neurological signs, a local corticosteroid injection in the previous three months, the current use of nitrate medications or phosphodiesterase inhibitors such as Viagra™, a family history of arthritis other than osteoarthritis, or extra-articular features of seronegative arthropathies. Generally, every participating patient could be considered to have persistent active tendinopathy.
(§5) The patients were randomly allocated into two groups. […] The active and placebo patches were indistinguishable from one another. The randomization was controlled by the senior pharmacist at the institution who also supervised the packaging of transdermal patches and their distribution to patients. Both the patients and the clinical examiner were blinded as to which group the patients were in, i.e. double-blind.
(§6) The transdermal patches were intact when distributed, and patients were required to cut the patches into quarters prior to application. Patients were also given a supply of paracetamol tablets (500 mg), and were instructed to use them exclusively for any headaches experienced.
(§7) Patients were instructed in the application of the patches at their initial visit. They were informed that the dosing regimen was one quarter of a transdermal patch to be applied daily to the skin area closest to the affected tendon. The patches were to be left in situ for 24 hours and then replaced with a new quarter patch. […] Patients were instructed to rotate the patch application site around this point with each new patch application for the six-month study duration in an effort to minimize application site irritation.
(§8) At the initial clinical assessment, all patients were instructed in the performance of a tendon specific rehabilitation program. […]

[2] = system: chronic supraspinatus tendinopathy; format: in vivo, human
Excerpt: as §1, §2, §3, §4, §5, §6, §7, §8

[3] = week 24, more patients asymptomatic with activities of daily living than placebo, 1.25 mg/24 h patch + rehabilitation

Q: What does the source list for `O=[N+]([O-])OCC(CO[N+](=O)[O-])O[N+](=O)[O-]` [glyceryl trinitrate, 1,2,3-propanetriol trinitrate]?
A: Headache (Days) Average ([1]; GTN group): GTN 5 Days; Headache (Days) Median ([1]; GTN group): GTN 4 Days; Headache (Days) Total ([1]; GTN group): 85 days; Headache: percentage of patients ([1]; GTN group): 53%; No Side Effects ([1]; GTN group): GTN 44%; Other Noted Side-Effects: Increase Tinnitus ([1]; GTN group): Tinnitus (3%); Tenderness Outcomes: Achilles tenderness vs placebo ([1]; Week 12 (p=0.02)): significant decreases; also recorded: significantly less; also recorded: Decreased Week; Pain Outcomes: Achilles tendon pain with activity vs placebo ([1]; Week 12 (p=0.02) / 24 (p=0.03)): significant decrease; also recorded: Decreased; Pain Outcomes: night pain vs placebo ([1]; Week 12 (p=0.04)): significant decrease; also recorded: Decreased; Functional Outcomes Measures: Hop Test vs placebo ([1]; Week 24): Increased Hop; Force Outcomes: ORI-ASTS mean plantarflexion total work vs placebo ([1]; Week 24 (p=0.04), from baseline levels): significant increase; also recorded: Increased Mean; Other Noted Side-Effects: Rash ([1]; application site, GTN group): Rash 16%,; number needed to treat (NNT) ([1]; excellent result at 24 weeks, Chi square p=0.001): 3.4; total amount of paracetamol required for headache treatment vs placebo ([1]; p=0.001): significant increases; also recorded: significant between-group differences; Discontinuations: Headache ([1]; patients, all GTN group): Headache 1; Discontinuations: Rash ([1]; patients, all GTN group): Rash,; Paracetamol Average ([1]; used for headache, GTN group): GTN 14 tablets; Paracetamol Median ([1]; used for headache, GTN group): GTN 10 tablets; Paracetamol Total ([1]; used for headache, GTN group): GTN 237 tablets; pain scores after the 10 hop test vs placebo ([1]; week 24 (p=0.005)): significant decrease; Improved Patient Outcomes [1, 3]: 29%; patients with excellent improvement (asymptomatic with activities of daily living), patient reported ([1]; week 24, placebo 49%): 78%; Headache (Days) Average ([2]; GTN group): GTN 6 Days; Headache (Days) Median ([2]; GTN group): GTN 4 Days; Headache (Days) Total ([2]; GTN group): GTN 127 Days; Headache: percentage of patients ([2]; GTN group): (76%); No Side Effects ([2]; GTN group): GTN 30%; Tenderness Outcomes vs placebo ([2]; anteroinferior subacromial tenderness): no significant differences; Other Noted Side-Effects: Rash ([2]; application site, GTN group): Rash 8%; number needed to treat (NNT) ([2]; excellent result at 24 weeks, Chi square p=0.007): 4.5; reported rate of headache and average number of headaches experienced vs placebo ([2]; human, in vivo): significant between-group differences; number of days affected by headache vs placebo ([2]; p=0.001): significant increase; Discontinuations: Headache ([2]; patients, all GTN group): Headache 2; Paracetamol Average ([2]; used for headache, GTN group): GTN 7 tablets; Paracetamol Median ([2]; used for headache, GTN group): GTN 2 tablets; Paracetamol Total ([2]; used for headache, GTN group): GTN 138 tablets; Improved Patient Outcomes [2, 3]: 22%; patients with excellent improvement, patient reported ([2]; week 24, placebo 24%): 46%
